This passage reports mutagenic call results from PubChem BioAssay AID1259407 (Chemical Carcinogenesis Research Information System (CCRIS), 2018).

The series concerns CCRIS mutagenicity, Ames/micronucleus/aberration tests. Kind of series: CCRIS mutagenicity studies.

Each structure is given as a SMILES string. Calls of active or inactive are those of the source. No rule for the calls is given here.

Take `COC(=O)CC(C)=O`: the mutagenic call reads like this: (End Point: In vitro chromosomal aberrations, Test System: Chinese hamster lung (CHL/IU) cells, Metabolic Activation: None) “inactive; negative”; (End Point: In vitro chromosomal aberrations, Test System: Chinese hamster lung (CHL/IU) cells, Metabolic Activation: Rat, Liver, S9, Phenobarbital and 5,6-benzoflavone) “active; positive (ploidy)”; (Test System: AMES SALMONELLA TYPHIMURIUM, Strain/Indicator: TA98, Metabolic Activation: NONE, Method: PREINCUBATION) “inactive; negative”; (Test System: AMES SALMONELLA TYPHIMURIUM, Strain/Indicator: TA98, Metabolic Activation: RAT LIVER S-9, PHENOBARBITAL AND BETA-NAPHTHOFLAVONE, Method: PREINCUBATION) “inactive; negative”; (Test System: AMES SALMONELLA TYPHIMURIUM, Strain/Indicator: TA98, Metabolic Activation: RAT, LIVER, S-9, KC 500, Method: PREINCUBATION) “inactive; negative”; (Test System: AMES SALMONELLA TYPHIMURIUM, Strain/Indicator: TA100, Metabolic Activation: NONE, Method: PREINCUBATION) “inactive; negative”. For the same compound, the mutagenic call is, setting by setting: (Test System: AMES SALMONELLA TYPHIMURIUM, Strain/Indicator: TA100, Metabolic Activation: RAT LIVER S-9, PHENOBARBITAL AND BETA-NAPHTHOFLAVONE, Method: PREINCUBATION) “inactive; negative”; (Test System: AMES SALMONELLA TYPHIMURIUM, Strain/Indicator: TA100, Metabolic Activation: RAT, LIVER, S-9, KC 500, Method: PREINCUBATION) “inactive; negative”; (Test System: AMES SALMONELLA TYPHIMURIUM, Strain/Indicator: TA1535, Metabolic Activation: NONE, Method: PREINCUBATION) “inactive; negative”; (Test System: AMES SALMONELLA TYPHIMURIUM, Strain/Indicator: TA1535, Metabolic Activation: RAT LIVER S-9, PHENOBARBITAL AND BETA-NAPHTHOFLAVONE, Method: PREINCUBATION) “inactive; negative”; (Test System: AMES SALMONELLA TYPHIMURIUM, Strain/Indicator: TA1535, Metabolic Activation: RAT, LIVER, S-9, KC 500, Method: PREINCUBATION) “inactive; negative”; (Test System: AMES SALMONELLA TYPHIMURIUM, Strain/Indicator: TA1537, Metabolic Activation: NONE, Method: PREINCUBATION) “inactive; negative”. In addition, the mutagenic call runs as follows: (Test System: AMES SALMONELLA TYPHIMURIUM, Strain/Indicator: TA1537, Metabolic Activation: RAT LIVER S-9, PHENOBARBITAL AND BETA-NAPHTHOFLAVONE, Method: PREINCUBATION) “inactive; negative”; (Test System: AMES SALMONELLA TYPHIMURIUM, Strain/Indicator: TA1537, Metabolic Activation: RAT, LIVER, S-9, KC 500, Method: PREINCUBATION) “inactive; negative”; (Test System: AMES SALMONELLA TYPHIMURIUM, Strain/Indicator: TA1538, Metabolic Activation: NONE, Method: PREINCUBATION) “inactive; negative”; (Test System: AMES SALMONELLA TYPHIMURIUM, Strain/Indicator: TA1538, Metabolic Activation: RAT, LIVER, S-9, KC 500, Method: PREINCUBATION) “inactive; negative”; (Test System: E. COLI, Strain/Indicator: WP2 UVRA, Metabolic Activation: NONE, Method: PREINCUBATION) “inactive; negative”; (Test System: E. COLI, Strain/Indicator: WP2 UVRA, Metabolic Activation: RAT, LIVER, S-9, KC 500, Method: PREINCUBATION) “inactive; negative”. Also, the mutagenic call was “inactive; negative” (Test System: E.COLI, Strain/Indicator: WP2UVRA/PKM101, Metabolic Activation: NONE, Method: PREINCUBATION) and “inactive; negative” (Test System: E.COLI, Strain/Indicator: WP2UVRA/PKM101, Metabolic Activation: RAT LIVER S-9, PHENOBARBITAL AND BETA-NAPHTHOFLAVONE, Method: PREINCUBATION).
